“Also recorded” adds a separate entry of the source.
Tests used:
[1] = biological target: T1, WT Nav1.5-α subunits (Homo sapiens, UniProt Q14524); experiment: Whole-cell patch clamp, single voltage-pulse protocol (peak INa, conductance, fast inactivation) in transiently transfected HEK293 cells; format: cell-based; settings: for Peak INa −20 mV: normalized peak INa, 37° C.; for Peak INa Slope: Hill curve slope; for IC50: Hill curve; for IC50 / effect on peak INa: single voltage-pulse protocol; for effect on fast inactivation kinetics: open-state voltages between −30 and +10 mV
T1 construct: expressed in transfected cells; host or cells: HEK293 (transient transfection)
Description: (§1) In one set of studies, we used a whole-cell patch clamp technique with single voltage-pulse protocols (FIGS. 3A-B) to characterize compounds ZINC38767171, ZINC39699427, ZINC40014265, ZINC64470729, ZINC64470737 and ZINC64470745. Whole-cell patch clamp was performed in extracellular solution containing (in mM): 140 NaCl, 4 KCl, 2 CaCl2, 1 MgCl2, and 10 HEPES (pH 7.4 adjusted with CsOH). The intracellular pipettes were dipped in dental wax and thermally polished to attain a resistance of 1.0-1.5 MΩ. The intracellular solutions contained (in mM): 130 CsF, 10 NaCl, 10 HEPES, and 10 EGTA titrated to pH 7.4. The six compounds, ZINC38767171, ZINC39699427, ZINC40014265, ZINC64470729, ZINC64470737 and ZINC64470745, chosen for electrophysiology characterization, ordered from MolPort (Easy compound ordering services), were diluted to 10 μM, 50 μM, and 100 μM in extracellular solution for biophysical assessment of channel gating.
(§2) The six compounds were screened against wild type (WT) Nav1.5-α subunits at the optimal physiological temperature of 37° C. Human Embryonic Kidney (HEK293) cells were transfected with WT Nav1.5-α subunits (transient transfections). The α subunits were co-expressed with the β1 subunit and eGFP (enhanced green fluorescence protein) in a 2:1:2 ratio, respectively.
Conductance was measured by a protocol that depolarized the membrane from −100 mV to +80 mV in increments of +5 mV for 19 ms. Prior to the test pulse, channels were allowed to recover from fast inactivation at −130 mV for 197 ms. The tested compounds had no effect on the conductance midpoint (FIGS. 6A-F).
At voltages greater than −50 mV, the fast inactivation T values were calculated from the mono-exponential fit to the decay of sodium current.

[2] = biological target: T1, WT Nav1.5-α subunits; experiment: Whole-cell patch clamp, use-dependence (slow inactivation) protocol at 6 Hz in transiently transfected HEK293 cells; format: cell-based; settings: for UDI Block Slope: Hill curve slope; for IC50: Hill curve, use-dependence at 6 Hz, read-out: UDI Block IC50
Description: as §1, §2
Slow inactivation (SI) was indirectly determined by measuring use-dependence, which is a physiologically-relevant protocol. The protocol includes a series of 500 110 ms depolarizing pulses to 0 mV followed by a 55 ms-90 mV recovery pulse at a frequency 6 Hz. With repetitive depolarizations, Nav1.5 channels accumulate into slow inactivation.

T1 sequence (Q14524 whole entry): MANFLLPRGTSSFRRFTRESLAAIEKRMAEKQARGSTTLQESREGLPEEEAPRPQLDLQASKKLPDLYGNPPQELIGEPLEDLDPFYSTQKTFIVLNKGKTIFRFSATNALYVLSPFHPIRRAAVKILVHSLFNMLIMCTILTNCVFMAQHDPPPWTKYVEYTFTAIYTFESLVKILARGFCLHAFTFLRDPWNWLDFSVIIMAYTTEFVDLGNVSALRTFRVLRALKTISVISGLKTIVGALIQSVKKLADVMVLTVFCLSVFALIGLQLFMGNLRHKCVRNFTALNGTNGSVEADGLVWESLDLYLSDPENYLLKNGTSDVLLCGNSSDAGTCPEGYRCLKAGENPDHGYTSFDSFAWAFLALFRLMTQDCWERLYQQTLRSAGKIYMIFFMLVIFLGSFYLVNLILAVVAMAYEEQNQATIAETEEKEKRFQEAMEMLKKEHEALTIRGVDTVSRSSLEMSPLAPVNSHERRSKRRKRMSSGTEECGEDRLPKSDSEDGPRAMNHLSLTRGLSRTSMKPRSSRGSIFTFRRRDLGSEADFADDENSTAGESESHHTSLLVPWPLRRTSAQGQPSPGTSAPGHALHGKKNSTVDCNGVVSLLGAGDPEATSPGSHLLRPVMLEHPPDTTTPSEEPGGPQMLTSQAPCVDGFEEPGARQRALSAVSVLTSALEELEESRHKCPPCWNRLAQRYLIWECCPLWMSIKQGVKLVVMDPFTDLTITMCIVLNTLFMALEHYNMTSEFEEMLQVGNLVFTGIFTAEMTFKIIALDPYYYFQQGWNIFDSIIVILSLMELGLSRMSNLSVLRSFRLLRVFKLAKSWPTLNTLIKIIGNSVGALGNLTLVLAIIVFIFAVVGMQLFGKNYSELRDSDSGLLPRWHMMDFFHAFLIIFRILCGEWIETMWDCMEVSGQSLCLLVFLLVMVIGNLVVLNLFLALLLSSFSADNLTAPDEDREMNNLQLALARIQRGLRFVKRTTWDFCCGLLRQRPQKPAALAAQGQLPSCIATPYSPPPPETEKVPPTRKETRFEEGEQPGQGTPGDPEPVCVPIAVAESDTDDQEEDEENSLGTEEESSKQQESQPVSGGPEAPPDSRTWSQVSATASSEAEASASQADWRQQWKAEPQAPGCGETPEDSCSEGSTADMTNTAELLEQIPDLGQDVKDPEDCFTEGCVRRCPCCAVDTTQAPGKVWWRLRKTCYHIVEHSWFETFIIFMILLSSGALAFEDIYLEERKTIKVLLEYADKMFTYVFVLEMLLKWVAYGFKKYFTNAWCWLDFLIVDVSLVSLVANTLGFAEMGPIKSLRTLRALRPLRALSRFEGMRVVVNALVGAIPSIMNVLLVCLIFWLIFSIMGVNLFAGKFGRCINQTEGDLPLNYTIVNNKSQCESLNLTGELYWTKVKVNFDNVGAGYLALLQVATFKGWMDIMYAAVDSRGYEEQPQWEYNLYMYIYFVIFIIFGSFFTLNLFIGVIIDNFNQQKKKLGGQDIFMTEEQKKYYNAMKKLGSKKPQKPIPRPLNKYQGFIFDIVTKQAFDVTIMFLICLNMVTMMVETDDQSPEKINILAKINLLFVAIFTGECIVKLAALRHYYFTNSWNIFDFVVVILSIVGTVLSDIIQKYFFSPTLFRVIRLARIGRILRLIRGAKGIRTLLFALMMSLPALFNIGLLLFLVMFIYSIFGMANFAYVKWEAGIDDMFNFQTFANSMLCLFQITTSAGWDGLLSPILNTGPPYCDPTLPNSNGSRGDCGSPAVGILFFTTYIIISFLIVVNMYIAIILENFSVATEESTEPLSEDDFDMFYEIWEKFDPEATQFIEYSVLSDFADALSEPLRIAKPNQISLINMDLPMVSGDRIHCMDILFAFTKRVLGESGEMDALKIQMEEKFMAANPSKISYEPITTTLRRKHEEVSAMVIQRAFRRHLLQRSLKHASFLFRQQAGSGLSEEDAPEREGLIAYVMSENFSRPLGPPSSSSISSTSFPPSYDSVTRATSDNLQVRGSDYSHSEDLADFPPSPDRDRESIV

Row | SMILES | % Block −20 mV ([1]; 10 μM) [%] | fast inactivation onset time constant FI +10 mV ([1]; 10 μM) [ms] | fast inactivation onset time constant FI −10 mV ([1]; 10 μM) [ms] | fast inactivation onset time constant FI −30 mV ([1]; 10 μM) [ms] | fast inactivation onset time constant FI −50 mV ([1]; 10 μM) [ms] | Peak INa −20 mV ([1]; 10 μM) | % Block −20 mV ([1]; 50 μM) [%] | fast inactivation onset time constant FI +10 mV ([1]; 50 μM) [ms] | fast inactivation onset time constant FI −10 mV ([1]; 50 μM) [ms] | fast inactivation onset time constant FI −30 mV ([1]; 50 μM) [ms] | fast inactivation onset time constant FI −50 mV ([1]; 50 μM) [ms] | Peak INa −20 mV ([1]; 50 μM) | % Block −20 mV ([1]; 100 μM) [%] | fast inactivation onset time constant FI +10 mV ([1]; 100 μM) [ms] | fast inactivation onset time constant FI −10 mV ([1]; 100 μM) [ms] | fast inactivation onset time constant FI −30 mV ([1]; 100 μM) [ms] | fast inactivation onset time constant FI −50 mV ([1]; 100 μM) [ms] | Peak INa −20 mV ([1]; 100 μM) | Peak INa Slope [1] | IC50 [1] [µM] | further results
1 | O=C1N=c2ccc(C(=O)NCc3ccco3)cc2=NC1=O [ZINC38767171, N-(2-furylmethyl)-2,3-dioxo-quinoxaline-6-carboxamide] | −24.21 | 0.25 ± 0.05 | 0.39 ± 0.06 | 0.71 ± 0.12 | 1.70 ± 0.33 | −0.72 ± 0.06 | −37.89 | 0.34 ± 0.06 | 0.58 ± 0.08 | 0.94 ± 0.10 | 1.79 ± 0.15 | −0.59 ± 0.11 | −38.95 | 0.41 ± 0.11 | 0.60 ± 0.13 | 1.05 ± 0.21 | 1.92 ± 0.38 | −0.58 ± 0.10 | 1.697 | 7.61 | effect on fast inactivation kinetics [1]: significantly decelerated; also recorded: decelerate fast inactivation kinetics, but not significantly; UDI Block Slope [2]: 3.161; IC50 [2]: 0.251 µM
2 | C=CCNS(=O)(=O)c1ccc2c(c1)=NC(=O)N=2 [ZINC39699427, N-allyl-2-oxo-benzimidazole-5-sulfonamide] | −34.00 | 0.21 ± 0.03 | 0.31 ± 0.04 | 0.54 ± 0.09 | 1.32 ± 0.24 | −0.66 ± 0.04 | −42.00 | 0.25 ± 0.03 | 0.35 ± 0.04 | 0.63 ± 0.08 | 1.46 ± 0.09 | −0.58 ± 0.06 | −47.00 | 0.26 ± 0.02 | 0.40 ± 0.03 | 0.72 ± 0.04 | 1.61 ± 0.18 | −0.53 ± 0.07 | 0.236 | 6.45 | effect on peak INa [1]: considerably blocked peak INa at low concentrations; effect on use-dependence ([2]; 6 Hz): significantly increases; UDI Block Slope [2]: 4.556; IC50 [2]: 0.196 µM
3 | COc1cccc(NS(=O)(=O)c2ccc3c(c2)=NC(=O)N=3)c1 [ZINC64470729, N-(3-methoxyphenyl)-2-oxo-benzimidazole-5-sulfonamide] | −22.68 | 0.26 ± 0.04 | 0.40 ± 0.08 | 0.70 ± 0.14 | 1.67 ± 0.21 | −0.75 ± 0.05 | −25.77 | 0.26 ± 0.02 | 0.40 ± 0.03 | 0.75 ± 0.07 | 1.97 ± 0.29 | −0.72 ± 0.06 | −38.14 | 0.23 ± 0.03 | 0.39 ± 0.02 | 0.76 ± 0.09 | 1.71 ± 0.22 | −0.60 ± 0.26 | 0.389 | 34.6 | effect on fast inactivation kinetics [1]: significantly decelerated; UDI Block Slope [2]: −0.194; IC50 [2]: 40.7 µM
4 | CCc1ccccc1NS(=O)(=O)c1ccc2c(c1)=NC(=O)N=2 [ZINC64470737, N-(2-ethylphenyl)-2-oxo-benzimidazole-5-sulfonamide] | −22.45 | 0.31 ± 0.06 | 0.41 ± 0.07 | 0.66 ± 0.09 | 1.37 ± 0.31 | −0.76 ± 0.13 | −40.82 | 0.39 ± 0.02 | 0.64 ± 0.08 | 1.02 ± 0.13 | 1.88 ± 0.27 | −0.58 ± 0.10 | −74.49 | 0.49 ± 0.00 | 0.66 ± 0.00 | 0.96 ± 0.00 | 1.82 ± 0.00 | −0.25 ± 0.00 | 14.37 | 9.86 | effect on fast inactivation kinetics [1]: significantly decelerated; also recorded: decelerates fast inactivation kinetics the most; UDI Block Slope [2]: 0.710; IC50 [2]: 95.1 µM
5 | Cc1cc(F)ccc1NS(=O)(=O)c1ccc2c(c1)=NC(=O)N=2 [ZINC64470745, N-(4-fluoro-2-methyl-phenyl)-2-oxo-benzimidazole-5-sulfonamide] | −23.71 | 0.27 ± 0.03 | 0.37 ± 0.03 | 0.66 ± 0.04 | 2.12 ± 0.34 | −0.74 ± 0.06 | −12.37 | 0.25 ± 0.02 | 0.37 ± 0.03 | 0.63 ± 0.05 | 1.75 ± 0.34 | −0.85 ± 0.08 | −24.74 | 0.28 ± 0.04 | 0.45 ± 0.07 | 0.81 ± 0.12 | 1.79 ± 0.20 | −0.73 ± 0.04 | 16.06 | 0.928 | plateau of drug block on sodium current ([1]; attained at concentrations above 10 μM): −20%; effect on fast inactivation kinetics [1]: significantly decelerated; effect on peak INa [1]: blocked peak INa the least; also recorded: does not reduce peak Na at concentrations above 10 μM; UDI Block Slope [2]: 0.289; IC50 [2]: 901 µM
